Reference: US20100298141A1, “SUBSTITUTED PYRIDINE N-OXIDE HERBICIDES” (E. I. DU PONT DE NEMOURS AND COMPANY, priority 2007, published 2010)

Legend:
[1] = system: Italian ryegrass (LOLMU); test: Test I preemergence mixtures of compound 2 with crop safeners; type: in vivo, Lolium multiflorum; details: alone
Source text: (§1) Seeds of test plants consisting of winter wheat (TRZAW, Triticum aestivum), corn (ZEAMD, Zea mays cv. ‘Pioneer 33G26’), wild oat (AVEFA, Avena fatua), and Italian ryegrass (LOLMU, Lolium multiflorum) were planted into a blend of loam soil and sand and treated preemergence with a directed soil spray using test chemicals formulated in a non-phytotoxic solvent mixture that included a surfactant. Seeds of small-seeded species were planted about 1 cm deep; larger seeds were planted about 2.5 cm deep. […] Balanced fertilizer was applied through the watering system. Treatments consisted of Compound 2 and the above mentioned safeners alone and in combination using a spray volume of 457 L/ha. Each treatment was replicated four times. Treated plants and controls were maintained in a greenhouse for 14 to 21 days, after which time all species were compared to controls and visually evaluated. […] A dash (-) response means no test result. Colby's Equation was used to determine the herbicidal effects expected from the mixtures. Colby's Equation (Colby, S. […] Pa+b=Pa+Pb−(PaPb/100) wherein • Pa+b is the percentage effect of the mixture expected from additive contribution of the individual components, • Pa is the observed percentage effect of the first active ingredient at the same use rate as in the mixture, and • Pb is the observed percentage effect of the second active ingredient at the same use rate as in the mixture.

[2] = system: corn (ZEAMD); test: Test J preemergence mixtures of Compound 2 with crop safeners; type: in vivo, Zea mays cv. ‘Pioneer 33G26’; parameters: key to ZEAMD Obsd. (observed effect): observed % herbicidal effect; details: for ZEAMD Obsd. (observed effect): Test J, alone
Source text: (§2) Seeds of test plants consisting of winter wheat (TRZAW, Triticum aestivum) and corn (ZEAMD, Zea mays cv. ‘Pioneer 33G26’) were planted into a blend of loam soil and sand and treated preemergence with a directed soil spray using test chemicals formulated in a non-phytotoxic solvent mixture that included a surfactant. […] Balanced fertilizer was applied through the watering system. Treatments consisted of Compound 2 and the above mentioned safeners alone and in combination using a spray volume of 457 L/ha. Each treatment was replicated four times. […] A dash (-) response means no test result. Colby's Equation was used to determine the herbicidal effects expected from the mixtures. Colby's Equation (Colby, S. […] wherein • Pa+b is the percentage effect of the mixture expected from additive contribution of the individual components, • Pa is the observed percentage effect of the first active ingredient at the same use rate as in the mixture, and Pb is the observed percentage effect of the second active ingredient at the same use rate as in the mixture.

[3] = system: giant foxtail (SETFA); test: Test H preemergence mixtures of compound 2 with crop safeners; type: in vivo, Setaria faberi; parameters: key to SETFA Obsd. (observed effect): observed % effect, visually evaluated vs controls; details: for SETFA Obsd. (observed effect): Test H, alone; for Plant response rating SETFA Obsd.: scale 0 to 100
Source text: (§3) Seeds of test plants consisting of winter wheat (TRZAW, Triticum aestivum), corn (ZEAMD, Zea mays cv. ‘Pioneer 33G26’), giant foxtail (SETFA, Setaria faberi), and Italian ryegrass (LOLMU, Lolium multiflorum) were planted into a blend of loam soil and sand and treated preemergence with a directed soil spray using test chemicals formulated in a non-phytotoxic solvent mixture that included a surfactant. Seeds of small-seeded species were planted about 1 cm deep; larger seeds were planted about 2.5 cm deep. […] Balanced fertilizer was applied through the watering system. Treatments consisted of Compound 2 and the above mentioned safeners alone and in combination using a spray volume of 457 L/ha. Each treatment was replicated four times. Treated plants and controls were maintained in a greenhouse for 14 to 21 days, after which time all species were compared to controls and visually evaluated. […] A dash (-) response means no test result. Colby's Equation was used to determine the herbicidal effects expected from the mixtures. Colby's Equation (Colby, S. […] wherein • Pa+b is the percentage effect of the mixture expected from additive contribution of the individual components, • Pa is the observed percentage effect of the first active ingredient at the same use rate as in the mixture, and • Pb is the observed percentage effect of the second active ingredient at the same use rate as in the mixture.

[4] = system: Italian ryegrass (LOLMU); test: as above; type: in vivo, Lolium multiflorum; parameters: key to LOLMU Obsd. (observed effect): observed % effect, visually evaluated vs controls; details: for LOLMU Obsd. (observed effect): Test H, alone; for Plant response rating LOLMU Obsd.: scale 0 to 100
Source text: as §3

[5] = system: corn (ZEAMD); test: as above; type: in vivo, Zea mays cv. ‘Pioneer 33G26’; parameters: key to ZEAMD Obsd. (observed effect): observed % effect, visually evaluated vs controls; details: for ZEAMD Obsd. (observed effect): Test H, alone; for Plant response rating ZEAMD Obsd.: scale 0 to 100
Source text: as §3

[6] = system: winter wheat (TRZAW); test: Test J preemergence mixtures of Compound 2 with crop safeners; type: in vivo, Triticum aestivum; parameters: key to TRZAW Obsd. (observed effect): observed % herbicidal effect; details: for TRZAW Obsd. (observed effect): Test J, alone
Source text: as §2

[7] = system: winter wheat (TRZAW); test: Test I preemergence mixtures of compound 2 with crop safeners; type: in vivo, Triticum aestivum; details: alone
Source text: as §1

[8] = system: wild oat (AVEFA); test: as above; type: in vivo, Avena fatua; details: alone
Source text: as §1

[9] = system: winter wheat (TRZAW); test: Test H preemergence mixtures of compound 2 with crop safeners; type: in vivo, Triticum aestivum; parameters: key to TRZAW Obsd. (observed effect): observed % effect, visually evaluated vs controls; details: for TRZAW Obsd. (observed effect): Test H, alone; for Plant response rating TRZAW Obsd.: scale 0 to 100
Source text: as §3

[10] = system: corn (ZEAMD); test: Test I preemergence mixtures of compound 2 with crop safeners; type: in vivo, Zea mays cv. ‘Pioneer 33G26’; details: alone
Source text: as §1

[11] = cloquintocet-mexyl alone 8 g a.i./ha
[12] = cloquintocet-mexyl alone 16 g a.i./ha
[13] = cloquintocet-mexyl alone 31 g a.i./ha

SMILES | LOLMU Obsd. (observed effect) ([1]; 4 g a.i./ha) | LOLMU Obsd. (observed effect) ([1]; 8 g a.i./ha) | SETFA Obsd. (observed effect) ([3]; 8 g a.i./ha) | SETFA Obsd. (observed effect) ([3]; 16 g a.i./ha) | SETFA Obsd. (observed effect) ([3]; 31 g a.i./ha) | LOLMU Obsd. (observed effect) ([4]; 8 g a.i./ha) | LOLMU Obsd. (observed effect) ([4]; 16 g a.i./ha) | LOLMU Obsd. (observed effect) ([4]; 31 g a.i./ha) | ZEAMD Obsd. (observed effect) ([5]; 8 g a.i./ha) | ZEAMD Obsd. (observed effect) ([5]; 16 g a.i./ha) | ZEAMD Obsd. (observed effect) ([5]; 31 g a.i./ha) | TRZAW Obsd. (observed effect) ([7]; 4 g a.i./ha) | TRZAW Obsd. (observed effect) ([7]; 8 g a.i./ha) | AVEFA Obsd. (observed effect) ([8]; 4 g a.i./ha) | AVEFA Obsd. (observed effect) ([8]; 8 g a.i./ha) | TRZAW Obsd. (observed effect) ([9]; 8 g a.i./ha) | TRZAW Obsd. (observed effect) ([9]; 16 g a.i./ha) | TRZAW Obsd. (observed effect) ([9]; 31 g a.i./ha) | ZEAMD Obsd. (observed effect) ([10]; 4 g a.i./ha) | ZEAMD Obsd. (observed effect) ([10]; 8 g a.i./ha) | further results
C=CCN(CC=C)C(=O)C(Cl)Cl [dichlormid] | 0 | 0 | 0 | 0 | 3 | 0 | 0 | 0 | 0 | 0 | 0 | 0 | 0 | 0 | 0 | 0 | 0 | 0 | 0 | 0 | Observed effect (Obsd.), ZEAMD ([2]; safener alone at 8 g a.i./ha): 0%; Observed effect (Obsd.), ZEAMD ([2]; safener alone at 31 g a.i./ha): 0%; Observed effect (Obsd.), ZEAMD ([2]; safener alone at 500 g a.i./ha): 0%; Observed effect (Obsd.), TRZAW ([6]; safener alone at 8 g a.i./ha): 0%; Observed effect (Obsd.), TRZAW ([6]; safener alone at 31 g a.i./ha): 0%
CCCCCC(C)OC(=O)COc1ccc(Cl)c2cccnc12 (stereo not drawn) [cloquintocet-mexyl] | 0 | 0 |  |  |  |  |  |  |  |  |  | 0 | 0 | 0 | 0 |  |  |  | 0 | 0 | Plant response rating SETFA Obsd. [3, 11]: 5; Plant response rating SETFA Obsd. [3, 12]: 3; Plant response rating SETFA Obsd. [3, 13]: 8; Plant response rating LOLMU Obsd. [4, 11]: 0; Plant response rating LOLMU Obsd. [4, 12]: 8; Plant response rating LOLMU Obsd. [4, 13]: 0; Plant response rating ZEAMD Obsd. [5, 11]: 0; Plant response rating ZEAMD Obsd. [5, 12]: 0; Plant response rating ZEAMD Obsd. [5, 13]: 0; Plant response rating TRZAW Obsd. [9, 11]: 0; Plant response rating TRZAW Obsd. [9, 12]: 0; Plant response rating TRZAW Obsd. [9, 13]: 0
CC(C)(C)c1ccc(C(=O)O)cc1 [4-t-butyl benzoic acid] |  |  |  |  |  |  |  |  |  |  |  |  |  |  |  |  |  |  |  |  | ZEAMD Obsd. (observed effect) ([2]; 8 g a.i./ha): 0; ZEAMD Obsd. (observed effect) ([2]; 31 g a.i./ha): 0; ZEAMD Obsd. (observed effect) ([2]; 125 g a.i./ha): 0; ZEAMD Obsd. (observed effect) ([2]; 500 g a.i./ha): 0; TRZAW Obsd. (observed effect) ([6]; 8 g a.i./ha): 0; TRZAW Obsd. (observed effect) ([6]; 31 g a.i./ha): 0; TRZAW Obsd. (observed effect) ([6]; 125 g a.i./ha): 0; TRZAW Obsd. (observed effect) ([6]; 500 g a.i./ha): 0
CC1COc2ccccc2N1C(=O)C(Cl)Cl (stereo not drawn) [benoxacor] | 0 | 0 | 0 | 3 | 0 | 0 | 0 | 0 | 0 | 0 | 0 | 0 | 0 | 0 | 0 | 0 | 0 | 0 | 0 | 0 | ZEAMD Obsd. (observed effect) ([2]; 8 g a.i./ha): 0; ZEAMD Obsd. (observed effect) ([2]; 31 g a.i./ha): 0; ZEAMD Obsd. (observed effect) ([2]; 125 g a.i./ha): 0; ZEAMD Obsd. (observed effect) ([2]; 500 g a.i./ha): 0; TRZAW Obsd. (observed effect) ([6]; 8 g a.i./ha): 0; TRZAW Obsd. (observed effect) ([6]; 31 g a.i./ha): 0; TRZAW Obsd. (observed effect) ([6]; 125 g a.i./ha): 0; TRZAW Obsd. (observed effect) ([6]; 500 g a.i./ha): 0
CCOC(=O)C1=NOC(c2ccccc2)(c2ccccc2)C1 [isoxadifen-ethyl] | 0 | 0 | 0 | 0 | 3 | 0 | 0 | 0 | 0 | 0 | 0 | 0 | 0 | 0 | 0 | 0 | 0 | 0 | 0 | 0 | Observed effect (Obsd.), ZEAMD ([2]; safener alone at 8 g a.i./ha): 0%; Observed effect (Obsd.), ZEAMD ([2]; safener alone at 31 g a.i./ha): 0%; Observed effect (Obsd.), ZEAMD ([2]; safener alone at 500 g a.i./ha): 0%; Observed effect (Obsd.), ZEAMD ([2]; single active ingredient alone at 125 g a.i./ha): 0%; Observed effect (Obsd.), TRZAW ([6]; safener alone at 8 g a.i./ha): 0%; Observed effect (Obsd.), TRZAW ([6]; safener alone at 31 g a.i./ha): 0%; Observed effect (Obsd.), TRZAW ([6]; safener alone at 500 g a.i./ha): 0%
